Experimental data published in ChEMBL document CHEMBL5260837, “Recent advances in small molecule based cancer immunotherapy” (Eur J Med Chem, 2018).
Blank lines part the entries; values can stand above or below the compound they belong to.

Key:
[1] = molecular target: T1, Arginase-2, mitochondrial (Homo sapiens, UniProt P78540); assay: Competitive inhibition of human ARG2
T1 sequence (P78540 whole entry): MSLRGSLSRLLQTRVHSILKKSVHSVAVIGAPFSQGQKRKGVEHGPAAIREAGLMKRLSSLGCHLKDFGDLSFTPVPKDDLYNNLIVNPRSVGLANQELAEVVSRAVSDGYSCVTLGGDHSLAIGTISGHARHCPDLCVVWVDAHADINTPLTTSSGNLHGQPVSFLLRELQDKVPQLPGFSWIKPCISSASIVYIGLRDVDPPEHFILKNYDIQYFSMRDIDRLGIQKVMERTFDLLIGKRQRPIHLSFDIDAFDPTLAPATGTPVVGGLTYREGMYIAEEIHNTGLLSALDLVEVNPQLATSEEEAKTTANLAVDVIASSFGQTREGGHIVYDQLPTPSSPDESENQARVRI

[2] = molecular target: Indoleamine 2,3-dioxygenase 1 (Homo sapiens, UniProt P14902); assay: Inhibition of human IDO1
Splenocyte = assay: Antiproliferative activity in mouse splenocyte assessed as inhibition of cell proliferation incubated for 72 hrs by MTT assay; type: functional; parameters: scale not given: the % may be the effect or the level left
[3] = molecular target: Programmed cell death protein 1/Programmed cell death 1 ligand 1 (Homo sapiens, UniProt Q15116+Q9NZQ7); assay: Inhibition of PD-1/PD-L1 interaction (unknown origin) incubated for 24 hrs by HTRF assay; type: protein-complex assay
[4] = molecular target: T2, Ectonucleoside triphosphate diphosphohydrolase 1 (Homo sapiens, UniProt P49961); assay: Inhibition of human NTPDase1
T2 sequence (P49961 whole entry): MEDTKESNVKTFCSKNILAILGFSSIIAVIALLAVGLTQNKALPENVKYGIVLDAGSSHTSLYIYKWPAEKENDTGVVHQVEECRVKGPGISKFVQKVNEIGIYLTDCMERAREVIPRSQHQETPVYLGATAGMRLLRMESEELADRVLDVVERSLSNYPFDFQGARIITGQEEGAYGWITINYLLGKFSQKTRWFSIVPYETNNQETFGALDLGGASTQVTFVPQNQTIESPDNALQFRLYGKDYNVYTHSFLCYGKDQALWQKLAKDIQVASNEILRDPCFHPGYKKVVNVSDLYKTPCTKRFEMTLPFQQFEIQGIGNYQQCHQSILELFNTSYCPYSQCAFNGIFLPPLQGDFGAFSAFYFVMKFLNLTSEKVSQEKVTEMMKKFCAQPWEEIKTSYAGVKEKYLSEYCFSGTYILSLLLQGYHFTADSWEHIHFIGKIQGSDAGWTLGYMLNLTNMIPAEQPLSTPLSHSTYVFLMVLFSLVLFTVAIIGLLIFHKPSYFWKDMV

Arginase-1 = molecular target: T3, Arginase-1 (Homo sapiens, UniProt P05089); assay: Inhibition of human ARG1
T3 sequence (P05089 whole entry): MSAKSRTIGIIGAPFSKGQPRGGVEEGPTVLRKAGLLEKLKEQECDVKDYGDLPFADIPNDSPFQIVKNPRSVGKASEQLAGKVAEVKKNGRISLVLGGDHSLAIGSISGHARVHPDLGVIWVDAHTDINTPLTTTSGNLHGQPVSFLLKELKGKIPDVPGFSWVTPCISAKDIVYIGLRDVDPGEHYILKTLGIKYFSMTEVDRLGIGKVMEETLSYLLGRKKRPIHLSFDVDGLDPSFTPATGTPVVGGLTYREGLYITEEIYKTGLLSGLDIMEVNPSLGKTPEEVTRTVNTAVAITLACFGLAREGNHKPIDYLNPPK

MIA PaCa-2 = assay: Antiproliferative activity against human MIA PaCa-2 cells
[5] = molecular target: C-X-C chemokine receptor type 4 (Homo sapiens, UniProt P61073); assay: Antagonist activity at CXCR4 receptor in human MIA PaCa-2 cells assessed as reduction in forskolin-stimulated inhibition of cAMP production; type: cell-based
[6] = Half life in mouse at 2000 mg/kg; type: ADME, organism-based; details: in vivo
Toll-like receptor 8 = molecular target: T4, Toll-like receptor 8 (Homo sapiens, UniProt Q9NR97); assay: Agonist activity at human TLR8 expressed in HEK293 cells by reporter gene assay
T4 sequence (Q9NR97 whole entry): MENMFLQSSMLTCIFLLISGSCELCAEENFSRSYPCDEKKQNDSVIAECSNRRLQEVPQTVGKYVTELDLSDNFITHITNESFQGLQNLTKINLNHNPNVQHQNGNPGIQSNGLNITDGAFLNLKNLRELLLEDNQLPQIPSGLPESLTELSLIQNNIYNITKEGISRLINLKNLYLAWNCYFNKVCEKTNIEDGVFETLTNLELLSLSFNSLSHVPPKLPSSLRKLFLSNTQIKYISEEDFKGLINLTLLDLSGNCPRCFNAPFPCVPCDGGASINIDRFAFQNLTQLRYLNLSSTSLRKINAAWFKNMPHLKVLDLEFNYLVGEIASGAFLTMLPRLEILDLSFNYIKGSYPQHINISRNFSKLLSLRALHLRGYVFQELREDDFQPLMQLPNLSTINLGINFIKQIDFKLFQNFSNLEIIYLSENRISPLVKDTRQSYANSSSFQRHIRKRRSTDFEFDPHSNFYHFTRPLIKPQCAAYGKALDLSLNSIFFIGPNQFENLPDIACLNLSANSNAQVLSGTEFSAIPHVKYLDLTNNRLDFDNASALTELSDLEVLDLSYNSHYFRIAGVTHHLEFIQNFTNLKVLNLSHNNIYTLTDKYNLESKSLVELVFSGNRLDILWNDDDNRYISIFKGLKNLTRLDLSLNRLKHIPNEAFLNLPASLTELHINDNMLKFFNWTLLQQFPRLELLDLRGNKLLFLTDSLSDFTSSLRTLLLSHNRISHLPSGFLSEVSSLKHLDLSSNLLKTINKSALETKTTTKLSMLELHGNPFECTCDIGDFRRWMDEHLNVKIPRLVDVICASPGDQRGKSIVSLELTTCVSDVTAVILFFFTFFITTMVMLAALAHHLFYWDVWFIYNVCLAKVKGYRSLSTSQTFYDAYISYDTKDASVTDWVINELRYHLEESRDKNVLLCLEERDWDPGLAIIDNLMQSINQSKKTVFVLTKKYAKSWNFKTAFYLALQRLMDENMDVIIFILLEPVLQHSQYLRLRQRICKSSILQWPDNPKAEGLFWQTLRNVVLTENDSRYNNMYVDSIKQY

[7] = Half life in rat; type: ADME; details: in vivo
[8] = Oral bioavailability in rat; type: ADME, organism-based; details: in vivo

Sequence of C-X-C chemokine receptor type 4 (P61073 whole entry): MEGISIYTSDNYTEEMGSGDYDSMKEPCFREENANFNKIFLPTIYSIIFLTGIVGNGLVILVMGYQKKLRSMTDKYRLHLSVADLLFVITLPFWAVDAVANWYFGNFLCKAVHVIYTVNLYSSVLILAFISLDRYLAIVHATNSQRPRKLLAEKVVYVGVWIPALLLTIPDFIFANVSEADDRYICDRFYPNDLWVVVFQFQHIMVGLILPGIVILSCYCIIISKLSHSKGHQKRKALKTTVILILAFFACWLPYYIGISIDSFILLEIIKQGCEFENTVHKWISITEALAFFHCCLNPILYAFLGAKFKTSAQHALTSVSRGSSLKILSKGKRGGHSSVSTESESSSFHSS
Sequence of Programmed cell death protein 1/Programmed cell death 1 ligand 1 (Q15116 whole entry): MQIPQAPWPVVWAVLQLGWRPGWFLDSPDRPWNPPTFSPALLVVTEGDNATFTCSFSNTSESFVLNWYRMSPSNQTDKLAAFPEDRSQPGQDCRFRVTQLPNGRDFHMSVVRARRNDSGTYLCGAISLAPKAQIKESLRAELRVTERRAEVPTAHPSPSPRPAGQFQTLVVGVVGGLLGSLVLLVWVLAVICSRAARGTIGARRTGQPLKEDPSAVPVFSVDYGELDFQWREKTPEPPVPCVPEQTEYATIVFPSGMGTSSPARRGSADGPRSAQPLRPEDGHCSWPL
Sequence of Programmed cell death protein 1/Programmed cell death 1 ligand 1 (Q9NZQ7 whole entry): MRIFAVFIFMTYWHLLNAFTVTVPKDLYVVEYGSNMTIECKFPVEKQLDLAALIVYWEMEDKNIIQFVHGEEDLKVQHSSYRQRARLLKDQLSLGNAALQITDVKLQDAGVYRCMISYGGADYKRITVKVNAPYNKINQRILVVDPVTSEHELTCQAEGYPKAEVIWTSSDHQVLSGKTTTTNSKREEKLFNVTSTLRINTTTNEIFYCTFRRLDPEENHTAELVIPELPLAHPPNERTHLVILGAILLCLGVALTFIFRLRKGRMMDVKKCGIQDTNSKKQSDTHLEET
Sequence of Indoleamine 2,3-dioxygenase 1 (P14902 whole entry): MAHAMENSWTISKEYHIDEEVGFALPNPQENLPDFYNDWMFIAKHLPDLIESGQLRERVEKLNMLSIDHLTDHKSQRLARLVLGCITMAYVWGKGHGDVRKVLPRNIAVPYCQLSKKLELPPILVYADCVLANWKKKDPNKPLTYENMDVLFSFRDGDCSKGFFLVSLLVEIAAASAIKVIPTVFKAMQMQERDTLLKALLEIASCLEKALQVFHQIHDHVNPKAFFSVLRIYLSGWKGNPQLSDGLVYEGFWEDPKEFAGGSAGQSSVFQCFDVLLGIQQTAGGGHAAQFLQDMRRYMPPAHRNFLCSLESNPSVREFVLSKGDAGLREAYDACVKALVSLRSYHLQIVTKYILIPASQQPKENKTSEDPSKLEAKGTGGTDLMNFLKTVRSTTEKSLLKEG

Structure (SMILES): C[C@@]12CCCCC1=C(O)C(=O)c1cc3c(cc12)C(=O)C1=C(C3=O)S(=O)(=O)CCN1
IC50 [2]: 110 nM

Structure (SMILES): NC(=O)C[C@H](N)c1nc([C@@H](N)CO)no1
Activity (Splenocyte): 48.4%

Structure (SMILES): Cc1c(Nc2cccc3cc(CNCCO)cnc23)cccc1-c1ccccc1
IC50 [3]: < 10 nM

Structure (SMILES): COc1cc(/C=N/c2nc(-c3cc4ccccc4oc3=O)cs2)cc(OC)c1OC
IC50 [4]: 50 nM

Structure (SMILES): CN[C@@H](CO)C(=O)N1C[C@H](CCCB(O)O)[C@](N)(C(=O)O)C1
IC50 (Arginase-1): 740 nM

Structure (SMILES): CCN(CC)CCCC(C)Nc1ccnc2cc(Cl)ccc12 (configuration not stated) [CHLOROQUINE]
IC50 (MIA PaCa-2): 3500 nM
EC50 [5]: 6500 nM

Second part, the compound after the results:

Ki [1]: 310 nM
Structure (SMILES): N[C@@H](CSCCB(O)O)C(=O)O

half-life [6]: 10.5 h
Structure (SMILES): Cn1cc(C[C@@H](N)C(=O)O)c2ccccc21 [INDOXIMOD]

EC50 (Toll-like receptor 8): 100 nM
Structure (SMILES): CCCN(CCC)C(=O)C1=Cc2ccc(-c3ccc(C(=O)N4CCCC4)cc3)cc2N=C(N)C1 [MOTOLIMOD]

half-life [7]: 0.25 h
bioavailability [8]: 100%
Structure (SMILES): N=C(NO)NCC[C@H](N)C(=O)O [NOR-NOHA]
